Patent US20180318311A1, “TRICYCLIC 2-QUINOLINONES AS ANTIBACTERIALS” (priority 2017, published 2018)
≈ marks a conversion by molar mass, not a printed value. Where a name gives a salt, the structure may show the parent alone.

Assays:
Format in all cases: cell-based
[1] = tested on: S. aureus ATCC 49951 (NB01006); assay: MIC by broth microdilution, S. aureus NB01006; conditions: Staphylococcus aureus, ATCC49951, CAMHB, 35° C., 20 hours, read-out: Antibacterial activity (MIC) NB01006
Method in brief: (§1)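 CAMHB, ~5×10^5 CFU/mL, 2-fold serial dilutions (final DMSO 1%), 35° C, ambient air, 20 h. Read OD600 plus visual check; MIC = lowest conc. with no visible growth, μg/mL.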

[2] = tested on: E. coli ATCC 25922 (NB27001); assay: MIC by broth microdilution, E. coli NB27001; conditions: Escherichia coli, ATCC25922, CAMHB, 35° C., 20 hours, read-out: Antibacterial activity (MIC) NB27001
Method in brief: as §1

[3] = tested on: E. faecalis ATCC 29212 (NB04001); assay: MIC by broth microdilution, E. faecalis NB04001; conditions: Enterococcus faecalis, ATCC29212, CAMHB, 35° C., 20 hours, read-out: Antibacterial activity (MIC) NB04001
Method in brief: as §1

[4] = tested on: S. aureus NB01006-AVR005, gyrA (S84L), grlA (580F) and grlB (E471K); assay: microbe, parasite or virus in culture; conditions: Staphylococcus aureus, 20 h, read-out: Antibacterial activity (MIC) NB01006-AVR005
Method in brief: as §1

[5] = tested on: S. pneumoniae ATCC 25922 (NB07001); assay: MIC by broth microdilution, S. pneumoniae NB07001; conditions: Streptococcus pneumoniae, ATCC25922, 20 h, read-out: Antibacterial activity (MIC) NB07001
Method in brief: as §1

[6] = tested on: P. aeruginosa NB52019, wild-type PAO1 strain; assay: MIC by broth microdilution, P. aeruginosa NB52019; conditions: Pseudomonas aeruginosa, CAMHB, 35° C., 20 hours, read-out: Antibacterial activity (MIC) NB52019
Method in brief: as §1

[7] = tested on: S. aureus NB01080 fluoroquinolone-resistant clinical isolate; assay: MIC by broth microdilution, S. aureus NB01080; conditions: Staphylococcus aureus, CAMHB, 35° C., 20 hours, read-out: Antibacterial activity (MIC) NB01080
Method in brief: as §1

Structure (SMILES)	MIC [1] [µg/mL]	MIC [2] [µg/mL]	MIC [3] [µg/mL]	MIC [4] [µg/mL]	MIC [5] [µg/mL]	MIC [6] [µg/mL]	MIC [7] [µg/mL]
C[C@H]1COc2c(N3CC4C(N)C4C3)c(F)c(F)c3cc(C(=O)O)c(=O)n1c23 (single isomer, unassigned) [Example 13.7]	< 1	< 1	< 1	1 to 32 (≈ 2.65 to 84.8 µM)	< 1	1 to 32 (≈ 2.65 to 84.8 µM)	1 to 32 (≈ 2.65 to 84.8 µM)
C[C@H]1COc2c(N3CC4C(C3)C4N(C)C)c(F)cc3cc(C(=O)O)c(=O)n1c23 (mixture of isomers) [Example 1.69, (3S)-10-(6-(dimethylamino)-3-azabicyclo[3.1.0]hexan-3-yl)-9-fluoro-3-methyl-5-oxo-2,3-dihydro-5H-[1,4]oxazino[2,3,4-ij]quinoline-6-carboxylic acid]	1 to 32	> 32	> 32	> 32	1 to 32	> 32	> 32
C[C@H]1COc2c(N3CC[C@@H](C4(N)CC4)C3)c(F)c(N)c3cc(C(=O)O)c(=O)n1c23 [Example 14, (S)-8-amino-10-((R)-3-(1-aminocyclopropyl)pyrrolidin-1-yl)-9-fluoro-3-methyl-5-oxo-2,3-dihydro-5H-[1,4]oxazino[2,3,4-ij]quinoline-6-carboxylic acid hydrochloride salt]	< 1	1 to 32	< 1	1 to 32	< 1	> 32	1 to 32
C[C@@H]1COc2c(N3CC[C@@H](C4(N)CC4)C3)c(F)cc3cc(C(=O)O)c(=O)n1c23 [Example 1.21, (R)-10-((R)-3-(1-aminocyclopropyl)pyrrolidin-1-yl)-9-fluoro-3-methyl-5-oxo-2,3-dihydro-5H-[1,4]oxazino[2,3,4-ij]quinoline-6-carboxylic acid]	1 to 32 (≈ 2.58 to 82.6 µM)	> 32	> 32	> 32	1 to 32 (≈ 2.58 to 82.6 µM)	> 32	> 32
C[C@H]1COc2c(N3CC[C@@H](C4(N(C)C)CC4)C3)c(F)cc3cc(C(=O)O)c(=O)n1c23 [Example 1.27, (S)-10-((R)-3-(1-(dimethylamino)cyclopropyl)pyrrolidin-1-yl)-9-fluoro-3-methyl-5-oxo-2,3-dihydro-5H-[1,4]oxazino[2,3,4-ij]quinoline-6-carboxylic acid]	1 to 32 (≈ 2.41 to 77 µM)	1 to 32 (≈ 2.41 to 77 µM)	1 to 32 (≈ 2.41 to 77 µM)	> 32	< 1	> 32	1 to 32 (≈ 2.41 to 77 µM)
C[C@H]1COc2c(N3CCC4CCNCC4C3)c(F)cc3cc(C(=O)O)c(=O)n1c23 (single isomer, unassigned) [Example 1.29]	> 32	> 32	> 32	> 32	> 32	> 32	> 32
C[C@H]1COc2c(N3CC[C@@H](C4(N)CC4)C3)c(F)c(C#N)c3cc(C(=O)O)c(=O)n1c23 [Example 21.1, (S)-10-((R)-3-(1-aminocyclopropyl)pyrrolidin-1-yl)-8-cyano-9-fluoro-3-methyl-5-oxo-2,3-dihydro-5H-[1,4]oxazino[2,3,4-ij]quinoline-6-carboxylic acid trifluoroacetate salt]	< 1	1 to 32	< 1	< 1	< 1	> 32	< 1
C[C@H]1COc2c(N3CCCN(CC(F)F)CC3)c(F)cc3cc(C(=O)O)c(=O)n1c23 [Example 1.54, (S)-10-(4-(2,2-difluoroethyl)-1,4-diazepan-1-yl)-9-fluoro-3-methyl-5-oxo-2,3-dihydro-5H-[1,4]oxazino[2,3,4-ij]quinoline-6-carboxylic acid]	1 to 32 (≈ 2.35 to 75.2 µM)	> 32	> 32	> 32	> 32	> 32	> 32
